According to patent publication US8148391B2 (Cephalon, Inc., priority 2006, dated 2012):
Like-named read-outs stand apart in the source and are kept apart here. Values belong to the compound of their own block, whether it stands above or below them.

Columns and labels:
[1] = molecular target: T1, baculovirus-expressed ALK (Homo sapiens, UniProt Q9UM73); assay: ALK Kinase Assay (ELISA-type, time-resolved fluorescence); assay type: biochemical
T1 construct: host or cells: baculovirus expression system
Method in brief: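 Substrate coating: phospholipase C-γ, 10 μg/mL in TBS. Kinase step: 30 ng/ml ALK, 15 min, 37° C. Detection and analysis: Eu-N1 PT66 antibody, with IC50 fitted as a sigmoidal variable-slope dose-response curve.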

[2] = molecular target: T2, c-Met (cytoplasmic domain) (Homo sapiens, UniProt P08581); assay: c-Met Kinase Assay (same methods as for ALK, with modifications); assay type: biochemical
T2 construct: 10 ng/mL c-Met (cytoplasmic domain, Invitrogen Corporation #PV3143); purchased Invitrogen Corporation PV3143
Method in brief: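 Wells were coated with 10 μg/mL phospholipase C-γ substrate in TBS, and reactions were started with 10 ng/mL c-Met cytoplasmic domain and run at 37° C for 15 minutes. Phosphorylated product was detected with Eu-N1-labeled PT66 antibody. IC50 values came from sigmoidal variable-slope fits of percent inhibition versus log compound concentration.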

[3] = ALK kinase inhibition, 1 μM ATP (Km level), read-out: ALK Activity
[4] = c-Met kinase inhibition, 1 μM ATP (Km level), read-out: cMet Activity
[5] = 1 μM ATP (Km level), read-out: ALK Activity (ALK Kinase Inhibition, IC50)
[6] = 1 μM ATP (Km level), read-out: cMet Activity (c-Met Kinase Inhibition, IC50)
[7] = 1 μM ATP (Km level), 30 ng/ml ALK, 37° C., 15 minutes, read-out: ALK Activity (ALK kinase inhibition, IC50 class)
[8] = 1 μM ATP (Km level), 10 ng/mL c-Met, read-out: cMet Activity (c-Met kinase inhibition, IC50 class)
[9] = ALK kinase inhibition, 1 μM ATP, read-out: ALK Activity
[10] = c-Met kinase inhibition, 1 μM ATP, read-out: cMet Activity

T2 sequence (P08581 956-1390 limits assumed): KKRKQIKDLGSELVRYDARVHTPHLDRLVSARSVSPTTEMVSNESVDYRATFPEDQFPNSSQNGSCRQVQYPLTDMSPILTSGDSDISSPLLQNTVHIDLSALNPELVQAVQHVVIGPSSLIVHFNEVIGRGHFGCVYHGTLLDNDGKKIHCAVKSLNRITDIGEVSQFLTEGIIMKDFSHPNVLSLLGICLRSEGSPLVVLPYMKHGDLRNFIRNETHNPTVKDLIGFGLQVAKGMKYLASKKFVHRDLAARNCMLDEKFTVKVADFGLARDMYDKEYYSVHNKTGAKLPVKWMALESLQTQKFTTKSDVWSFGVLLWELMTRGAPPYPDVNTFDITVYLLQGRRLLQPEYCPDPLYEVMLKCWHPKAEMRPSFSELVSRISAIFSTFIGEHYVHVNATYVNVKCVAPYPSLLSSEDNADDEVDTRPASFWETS
T1 sequence (Q9UM73 19-1620): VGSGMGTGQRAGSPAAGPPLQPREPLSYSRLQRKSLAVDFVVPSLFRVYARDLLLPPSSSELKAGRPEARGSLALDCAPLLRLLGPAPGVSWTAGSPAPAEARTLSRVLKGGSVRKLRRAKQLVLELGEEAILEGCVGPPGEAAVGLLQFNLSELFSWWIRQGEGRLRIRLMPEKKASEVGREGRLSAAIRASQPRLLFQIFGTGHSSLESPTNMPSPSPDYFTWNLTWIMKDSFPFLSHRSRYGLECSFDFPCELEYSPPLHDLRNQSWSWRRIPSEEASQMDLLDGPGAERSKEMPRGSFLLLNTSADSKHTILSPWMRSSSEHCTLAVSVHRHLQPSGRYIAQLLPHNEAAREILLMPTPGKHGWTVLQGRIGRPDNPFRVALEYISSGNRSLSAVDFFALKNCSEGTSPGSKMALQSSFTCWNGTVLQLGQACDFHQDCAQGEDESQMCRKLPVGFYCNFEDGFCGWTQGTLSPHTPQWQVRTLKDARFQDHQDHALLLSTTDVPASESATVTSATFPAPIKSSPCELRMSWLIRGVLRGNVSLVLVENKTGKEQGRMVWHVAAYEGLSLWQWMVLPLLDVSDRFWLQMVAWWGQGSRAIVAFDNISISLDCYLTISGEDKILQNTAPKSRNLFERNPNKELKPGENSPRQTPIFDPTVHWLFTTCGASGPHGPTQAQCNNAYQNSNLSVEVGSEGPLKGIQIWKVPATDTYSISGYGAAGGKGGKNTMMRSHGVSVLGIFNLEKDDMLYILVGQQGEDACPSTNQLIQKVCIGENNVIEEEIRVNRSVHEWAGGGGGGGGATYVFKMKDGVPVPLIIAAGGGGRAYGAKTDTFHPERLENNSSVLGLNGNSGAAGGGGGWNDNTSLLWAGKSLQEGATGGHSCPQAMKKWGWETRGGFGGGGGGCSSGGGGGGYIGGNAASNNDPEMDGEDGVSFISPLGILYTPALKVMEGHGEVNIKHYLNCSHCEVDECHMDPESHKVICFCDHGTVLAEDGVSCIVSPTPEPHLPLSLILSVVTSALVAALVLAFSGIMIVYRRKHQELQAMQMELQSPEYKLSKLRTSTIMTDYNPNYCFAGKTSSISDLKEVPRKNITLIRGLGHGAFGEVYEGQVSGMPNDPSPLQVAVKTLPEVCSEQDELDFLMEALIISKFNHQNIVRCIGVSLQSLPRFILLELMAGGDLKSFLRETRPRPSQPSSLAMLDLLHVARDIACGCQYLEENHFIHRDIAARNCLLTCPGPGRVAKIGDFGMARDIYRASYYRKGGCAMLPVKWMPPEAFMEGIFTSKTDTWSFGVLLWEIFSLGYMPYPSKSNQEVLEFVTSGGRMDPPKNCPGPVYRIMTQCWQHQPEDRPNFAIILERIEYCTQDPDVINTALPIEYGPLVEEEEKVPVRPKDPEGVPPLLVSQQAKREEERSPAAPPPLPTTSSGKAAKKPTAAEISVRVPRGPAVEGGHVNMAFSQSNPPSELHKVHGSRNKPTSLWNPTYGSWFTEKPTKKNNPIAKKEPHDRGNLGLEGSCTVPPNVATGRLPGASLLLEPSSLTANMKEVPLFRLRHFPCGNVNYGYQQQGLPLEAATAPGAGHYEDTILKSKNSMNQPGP

Compound: CS(=O)(=O)N[C@@H]1CCCC[C@H]1Nc1nc(Nc2ccc3c(c2)CCN(C[C@@H](O)C(F)(F)F)CC3)ncc1Cl [Example 449, N-((1R,2R)-2-{5-Chloro-2-[3-((R)-3,3,3-trifluoro-2-hydroxy-propyl)-2,3,4,5-tetrahydro-1H-benzo[d]azepin-7-ylamino]-pyrimidin-4-ylamino}-cyclohexyl)-methanesulfonamide]
IC50 [1, 3]: < 0.1 µM | IC50 [2, 4]: 0.1 to 1 µM

Compound: COCCNC1CCCc2c(ccc(Nc3ncc(Cl)c(N[C@H]4[C@@H](C(N)=O)[C@@H]5C=C[C@H]4C5)n3)c2OC)C1 (stereo partly drawn) [Example 956, (1S,2S,3R,4R)-3-{5-Chloro-2-[1-methoxy-6-(2-methoxy-ethylamino)-6,7,8,9-tetrahydro-5H-benzocyclohepten-2-ylamino]-pyrimidin-4-ylamino}-bicyclo[2.2.1]hept-5-ene-2-carboxylic acid amide]
IC50 [1, 5]: < 0.1 µM | IC50 ([2]; cMet Activity (c-Met Kinase Inhibition, IC50), 1 μM ATP (Km level)): > 10 µM

Compound: CNC(=O)c1ccccc1Nc1nc(Nc2ccc3c(c2Cl)C2CCC(C3)N2CCOC)ncc1Cl (stereo not drawn) [Example 87, 2-{5-Chloro-2-[3-chloro-12-(2-methoxy-ethyl)-12-aza-tricyclo[7.2.1.0*2,7*]dodeca-2(7),3,5-trien-4-ylamino]-pyrimidin-4-ylamino}-N-methyl-benzamide]
IC50 [1, 3]: < 0.1 µM | IC50 [2, 4]: 0.1 to 1 µM

Compound: CC(=O)OCCN1CCN(C)c2cc(Nc3ncc(Cl)c(Nc4ccccc4NS(C)(=O)=O)n3)ccc2C1 [Example 473, Acetic acid 2-{8-[5-chloro-4-(2-methanesulfonylamino-phenylamino)-pyrimidin-2-ylamino]-1-methyl-1,2,3,5-tetrahydro-benzo[e][1,4]diazepin-4-yl}-ethyl ester]
IC50 [1, 3]: < 0.1 µM | IC50 [2, 4]: 0.1 to 1 µM

Compound: CCN1CC(=O)Nc2cc(Nc3ncc(Cl)c(Nc4c(C)csc4C(=O)NC)n3)ccc2C1 [Example 1865, 3-[5-Chloro-2-(4-ethyl-2-oxo-2,3,4,5-tetrahydro-1H-benzo[e][1,4]diazepin-8-ylamino)-pyrimidin-4-ylamino]-4-methyl-thiophene-2-carboxylic acid methylamide]
IC50 [1, 9]: 0.1 to 1 µM | IC50 [2, 10]: 0.1 to 1 µM

Compound: CC1(C)CCCNc2ccc(Nc3ncc(Cl)c(N[C@@H]4CCCC[C@H]4NS(C)(=O)=O)n3)cc21 [Example 392, N-{(1R,2R)-2-[5-Chloro-2-(5,5-dimethyl-2,3,4,5-tetrahydro-1H-benzo[b]azepin-7-ylamino)-pyrimidin-4-ylamino]-cyclohexyl}-methanesulfonamide]
IC50 [1, 3]: < 0.1 µM | IC50 [2, 4]: 1 to 10 µM

Compound: COCCN1CCN(C)c2ccc(Nc3ncc(Cl)c(N[C@@H]4CCCC[C@H]4NS(C)(=O)=O)n3)cc2C1 [Example 430, N-((1R,2R)-2-{5-Chloro-2-[4-(2-methoxy-ethyl)-1-methyl-2,3,4,5-tetrahydro-1H-benzo[e][1,4]diazepin-7-ylamino]-pyrimidin-4-ylamino}-cyclohexyl)-methanesulfonamide]
IC50 [1, 3]: < 0.1 µM | IC50 [2, 4]: 1 to 10 µM

Compound: COc1cc2c(cc1Nc1ncc(Cl)c(Nc3ccccc3S(=O)(=O)N(C)C)n1)CCN(Cc1nccn1C)CC2 [Example 1171, 2-{5-Chloro-2-[8-methoxy-3-(1-methyl-1H-imidazol-2-ylmethyl)-2,3,4,5-tetrahydro-1H-benzo[d]azepin-7-ylamino]-pyrimidin-4-ylamino}-N,N-dimethyl-benzenesulfonamide]
IC50 [1, 7]: < 0.1 µM | IC50 [2, 8]: 1 to 10 µM

Compound: CCN1C(=O)OCCc2cc(Nc3ncc(Cl)c(Nc4c(F)cccc4C(=O)NC)n3)ccc21 [Example 1746, 2-[5-chloro-2-(5-ethyl-6-oxo-5,6,8,9-tetrahydro-7-oxa-5-aza-benzocyclohepten-2-ylamino)-pyrimidin-4-ylamino]-3-fluoro-N-methyl-benzamide]
IC50 [1, 9]: < 0.1 µM | IC50 [2, 10]: < 0.1 µM

Compound: CCN1CC(=O)N(CC)c2cc(Nc3ncc(Cl)c(Nc4ccc(OC)cc4-n4cccn4)n3)c(OC)cc2C1 [Example 737, 8-[5-Chloro-4-(4-methoxy-2-pyrazol-1-yl-phenylamino)-pyrimidin-2-ylamino]-1,4-diethyl-7-methoxy-1,3,4,5-tetrahydro-benzo[e][1,4]diazepin-2-one]
IC50 [1, 5]: < 0.1 µM | IC50 [2, 6]: > 10 µM

Compound: CCN1C(=O)[C@H](N)CCc2c1ccc(Nc1ncc(Cl)c(N[C@H]3[C@@H](C(N)=O)[C@@H]4C=C[C@H]3C4)n1)c2OC (single isomer, unassigned) [Example 1331]
IC50 [1, 7]: < 0.1 µM | IC50 [2, 8]: > 10 µM

Compound: CCNC(=O)c1cccc(F)c1Nc1nc(Nc2cccc3c2OCCCC3(C)C)ncc1Cl [Example 874, 2-[5-Chloro-2-(5,5-dimethyl-2,3,4,5-tetrahydro-benzo[b]oxepin-9-ylamino)-pyrimidin-4-ylamino]-N-ethyl-3-fluoro-benzamide]
IC50 [1, 5]: 0.1 to 1 µM | IC50 [2, 6]: > 10 µM

Compound: COc1cc2c(cc1Nc1ncc(Cl)c(Nc3ccc(N4CCC(N5CCN(C)CC5)CC4)cc3OC)n1)CCN(CC(=O)N(C)C)CC2 [Example 819, 2-[7-(5-Chloro-4-{2-methoxy-4-[4-(4-methyl-piperazin-1-yl)-piperidin-1-yl]-phenylamino}-pyrimidin-2-ylamino)-8-methoxy-1,2,4,5-tetrahydro-benzo[d]azepin-3-yl]-N,N-dimethyl-acetamide]
IC50 [1, 5]: < 0.1 µM | IC50 [2, 6]: > 10 µM

Compound: CNC(=O)c1ccccc1Nc1nc(Nc2ccc3c(c2)CCN(C[C@H](O)C(F)(F)F)CC3)ncc1Cl [Example 328, 2-{5-Chloro-2-[3-((S)-3,3,3-trifluoro-2-hydroxy-propyl)-2,3,4,5-tetrahydro-1H-benzo[d]azepin-7-ylamino]-pyrimidin-4-ylamino}-N-methyl-benzamide]
IC50 [1, 3]: < 0.1 µM | IC50 [2, 4]: < 0.1 µM

Compound: CC(C)S(=O)(=O)c1cccc(F)c1Nc1nc(Nc2ccc3c(c2)-n2ccnc2CCC3)ncc1Cl [Example 1842, 5-Chloro-N*2*-(5,6-dihydro-4H-3,10b-diaza-benzo[e]azulen-9-yl)-N*4*-[2-fluoro-6-(propane-2-sulfonyl)-phenyl]-pyrimidine-2,4-diamine]
IC50 [1, 9]: < 0.1 µM | IC50 [2, 10]: < 0.1 µM

Compound: CNC(=O)c1cccc(F)c1Nc1nc(Nc2ccc3c(c2)C2CCC(C3)N2CCOC)ncc1Cl (stereo not drawn) [Example 456, 2-{5-Chloro-2-[12-(2-methoxy-ethyl)-12-aza-tricyclo[7.2.1.0(2,7)]dodeca-2(7),3,5-trien-4-ylamino]-pyrimidin-4-ylamino}-3-fluoro-N-methyl-benzamide]
IC50 [1, 3]: < 0.1 µM | IC50 [2, 4]: < 0.1 µM

Compound: CCN1C(=O)CCCc2c1ccc(Nc1ncc(Cl)c(N[C@@H]3CCCC[C@H]3NS(C)(=O)=O)n1)c2OC [Example 120, N-{(1R,2R)-2-[5-Chloro-2-(1-ethyl-6-methoxy-2-oxo-2,3,4,5-tetrahydro-1H-benzo[b]azepin-7-ylamino)-pyrimidin-4-ylamino]-cyclohexyl}-methanesulfonamide]
IC50 [1, 3]: < 0.1 µM | IC50 [2, 4]: > 10 µM

More lines, now with the values ahead:

IC50 [1, 3]: < 0.1 µM | IC50 [2, 4]: < 0.1 µM
Compound: CNC(=O)c1ccccc1Nc1nc(Nc2ccc3c(c2)CCOCC3)ncc1Cl [Example 51, 2-[5-Chloro-2-(5,6,8,9-tetrahydro-7-oxa-benzocyclohepten-2-ylamino)-pyrimidin-4-ylamino]-N-methyl-benzamide]

IC50 [1, 5]: 0.1 to 1 µM | IC50 [2, 6]: > 10 µM
Compound: COCCn1ccnc1-c1ccccc1Nc1nc(Nc2ccc3c(c2)C(C)(C)CCC(=O)N3)ncc1Cl [Example 980, 7-(5-Chloro-4-{2-[1-(2-methoxy-ethyl)-1H-imidazol-2-yl]-phenylamino}-pyrimidin-2-ylamino)-5,5-dimethyl-1,3,4,5-tetrahydro-benzo[b]azepin-2-one]

IC50 [1, 3]: < 0.1 µM | IC50 [2, 4]: < 0.1 µM
Compound: CNC(=O)c1ccccc1Nc1nc(Nc2ccc3c(c2)N(C)C(=O)CCC3)ncc1Cl [Example 108, 2-[5-Chloro-2-(1-methyl-2-oxo-2,3,4,5-tetrahydro-1H-benzo[b]azepin-8-ylamino)-pyrimidin-4-ylamino]-N-methyl-benzamide]

IC50 [1, 7]: < 0.1 µM | IC50 [2, 8]: > 10 µM
Compound: COc1cc2c(cc1Nc1ncc(Cl)c(Nc3ccccc3OCC#N)n1)CCN(CC(=O)N(C)C)CC2 [Example 1147, 2-{7-[5-Chloro-4-(2-cyanomethoxy-phenylamino)-pyrimidin-2-ylamino]-8-methoxy-1,2,4,5-tetrahydro-benzo[d]azepin-3-yl}-N,N-dimethyl-acetamide]

IC50 [1, 7]: < 0.1 µM | IC50 [2, 8]: < 0.1 µM
Compound: CC1(C)CCC(=O)Nc2cc(Nc3ncc(Cl)c(Nc4ccccc4OCCC#N)n3)ccc21 [Example 1238, 3-{2-[5-Chloro-2-(5,5-dimethyl-2-oxo-2,3,4,5-tetrahydro-1H-1-benzazepin-8-ylamino)-pyrimidin-4-ylamino]-phenoxy}-propionitrile]

IC50 [1, 3]: < 0.1 µM | IC50 [2, 4]: < 0.1 µM
Compound: CNC(=O)c1ccccc1Nc1nc(Nc2ccc3c(c2)C(C)(C)CCC(=O)N3C)ncc1Cl [Example 384, 2-[5-Chloro-2-(1,5,5-trimethyl-2-oxo-2,3,4,5-tetrahydro-1H-benzo[b]azepin-7-ylamino)-pyrimidin-4-ylamino]-N-methyl-benzamide]

IC50 [1, 9]: 1 to 10 µM | IC50 [2, 10]: < 0.1 µM
Compound: CCN1C(=O)CN(C(C)=O)Cc2ccc(Nc3ncc(Cl)c(Nc4ccccc4C(=O)NC)n3)cc21 [Example 1855, 2-[2-(4-Acetyl-1-ethyl-2-oxo-2,3,4,5-tetrahydro-1H-benzo[e][1,4]diazepin-8-ylamino)-5-chloro-pyrimidin-4-ylamino]-N-methyl-benzamide]
